Assay results reported in US20240002385A1, “PIPERIDINYL-METHYL-PURINE AMINE D-TARTARIC ACID SALTS, CRYSTALLINE FORMS, AND THEIR USE IN TREATING MEDICAL DISEASES AND CONDITIONS” (K36 Therapeutics, Inc., priority 2022, published 2024).
≈ marks a conversion by molar mass, not a printed value.

Tests used:
Type in all cases: physicochemical
[1] = Hygroscopicity by dynamic vapor sorption; conditions: transitioned from 5% to 95% relative humidity
Method: The title compound was analyzed for hygroscopicity by dynamic vapor sorption. Dynamic vapor sorption was performed using a Q5000SA. The sample (5-15 mg) was loaded into a metallic quartz sample pan, suspended from a microbalance, and exposed to a humidified stream of nitrogen gas. Weight changes were relative to a matching empty reference pan opposite the sample, suspended from the microbalance. The sample was held for a minimum of 10 min at each humidity level and only progressed to the next humidity level if there was <0.002% change in weight between measurements (interval: 5 s) or 60 min had elapsed. The following program was used: • 1. Equilibration at 50% RH • 2. 50% to 5% (50%, 35%, 20%, and 5%) • 3. 5% to 95%(5%, 20%, 35%, 50%, 65%, 80%, and 95%) • 4. 95% to 5% (95%, 80%, 65%, 50%, 35%, 20%, and 5%) • 5. 5% to 50%(5%, 20%, 35%, and 50%).

[2] = Six-month stability study at elevated temperature and relative humidity (40° C.±2° C., 75%±5% RH); conditions: 40° C./75% RH
Method: A six-month stability study was conducted on the crystalline form of (S)-1-((R)-3-amino-1-(4-((6-amino-9H-purin-9-yl)methyl)-6-(2,5-difluoro-4-methoxyphenyl) pyridin-3-yl)piperidin-3-yl)-2,2-difluoroethan-1-ol D-tartaric acid salt having an XRDP pattern as set forth in Example 4. In particular, an aliquot of the crystalline (S)-1-((R)-3-amino-1-(4-((6-amino-9H-purin-9-yl)methyl)-6-(2,5-difluoro-4-methoxyphenyl) pyridin-3-yl)piperidin-3-yl)-2,2-difluoroethan-1-ol D-tartaric acid salt was stored for six months at a temperature of 40° C.±2° C. where the relative humidity was 75%±5%. A sample of the crystalline (S)-1-((R)-3-amino-1-(4-((6-amino-9H-purin-9-yl)methyl)-6-(2,5-difluoro-4-methoxyphenyl) pyridin-3-yl)piperidin-3-yl)-2,2-difluoroethan-1-ol D-tartaric acid salt was analyzed at the following time points in the experiment: 0 days (i.e., at the start of the experiment), 1 month, 3 months, and 6 months. The following parameters were evaluated at each time point: physical appearance, water content by coulometric Karl Fischer (CKF) determination, purity by ultra-performance liquid chromatography (UPLC), and total amount of related substances. XRPD analysis was performed on a compound sample at time points 0 days and at 6 months.

[3] = Water solubility of crystalline form at pH 6.8 and 37° C.; conditions: aqueous buffer, pH 6.8, 37° C.
[4] = Analysis of aqueous solubility (water and fasted state simulated intestinal fluid); conditions: 37° C.; for solubility at 24 h: thermodynamic from solid, read-out: Test Compound Solubility
Method: Solubility of test compounds in two different liquids was evaluated: (a) water and (b) fasted state simulated intestinal fluid. Test compounds analyzed were: • crystalline (S)-1-((R)-3-amino-1-(4-((6-amino-9H-purin-9-yl)methyl)-6-(2,5-difluoro-4-methoxyphenyl) pyridin-3-yl)piperidin-3-yl)-2,2-difluoroethan-1-ol D-tartaric acid salt, as set forth in Example 4 (hereinafter “Compound A”); • (S)-1-((R)-3-amino-1-(4-((6-amino-9H-purin-9-yl)methyl)-6-(2,5-difluoro-4-methoxyphenyl) pyridin-3-yl)piperidin-3-yl)-2,2-difluoroethan-1-ol fumaric acid salt (hereinafter “Compound B”); • (S)-1-((R)-3-amino-1-(4-((6-amino-9H-purin-9-yl)methyl)-6-(2,5-difluoro-4-methoxyphenyl) pyridin-3-yl)piperidin-3-yl)-2,2-difluoroethan-1-ol free base (hereinafter “Compound C”).
An aliquot of test compound was placed in the liquid at a temperature of 37° C., and then after 24 hours the concentration of dissolved test compound was determined. pH of the solution at 24 hours was also measured.

[5] = Water content by Karl Fischer titration
Method: The title compound was analyzed for water content by Karl Fischer (KF) titration, and determined to have a water content of 1.22 wt %. Karl Fischer (KF) titration for water determination was performed using a Mettler Toledo C20S Coulometric KF Titrator equipped with a current generator cell with a diaphragm, and a double-platinum-pin electrode. The range of detection of the instrument is 1 ppm to 5% water. Aquastar™ CombiCoulomat fritless reagent was used in both the anode and cathode compartments. Samples of approximately 0.03-0.10 g were dissolved in the anode compartment and titrated until the solution potential dropped below 100 mV. Hydranal 1 wt % water standard was used for validation prior to sample analysis.

[6] = Salt form observations: hydrate formation and hygroscopicity
[7] = One year stability study (25° C.±2° C., 60%±5% RH); conditions: 25° C./60% RH
Method: A one-year stability study was conducted on the crystalline form of (S)-1-((R)-3-amino-1-(4-((6-amino-9H-purin-9-yl)methyl)-6-(2,5-difluoro-4-methoxyphenyl) pyridin-3-yl)piperidin-3-yl)-2,2-difluoroethan-1-ol D-tartaric acid salt having an XRDP pattern as set forth in Example 4. In particular, an aliquot of the crystalline (S)-1-((R)-3-amino-1-(4-((6-amino-9H-purin-9-yl)methyl)-6-(2,5-difluoro-4-methoxyphenyl) pyridin-3-yl)piperidin-3-yl)-2,2-difluoroethan-1-ol D-tartaric acid salt was stored for 1 year at a temperature of 25° C.±2° C. where the relative humidity was 60%±5%. A sample of the crystalline (S)-1-((R)-3-amino-1-(4-((6-amino-9H-purin-9-yl)methyl)-6-(2,5-difluoro-4-methoxyphenyl) pyridin-3-yl)piperidin-3-yl)-2,2-difluoroethan-1-ol D-tartaric acid salt was analyzed at the following time points in the experiment: 0 days (i.e., at the start of the experiment), 1 month, 3 months, 6 months, 9 months, and 12 months. The following parameters were evaluated at each time point: physical appearance, water content by coulometric Karl Fischer (CKF) determination, purity by ultra-performance liquid chromatography (UPLC), and total amount of related substances. XRPD analysis was performed on a compound sample at time points 0 days and at 12 months.

[8] = Accelerated stability study (six days, 75% RH, 40° C.)
Method: An accelerated stability study was conducted on the crystalline form of (S)-1-((R)-3-amino-1-(4-((6-amino-9H-purin-9-yl)methyl)-6-(2,5-difluoro-4-methoxyphenyl) pyridin-3-yl)piperidin-3-yl)-2,2-difluoroethan-1-ol D-tartaric acid salt, prepared as described in Example 1. Approximately 12 mg of solid was placed into a 4-mL vial, and then the vial was covered with a Kimwipe. The vial was stored for six days inside a stability chamber producing a relative humidity of 75% at 40° C.

[9] = fassif, fasted state simulated intestinal fluid
[10] = fasted state simulated intestinal fluid

## COc1cc(F)c(-c2cc(Cn3cnc4c(N)ncnc43)c(N3CCC[C@](N)([C@H](O)C(F)F)C3)cn2)cc1F.O=C(O)C(O)C(O)C(=O)O [Compound A, (S)-1-((R)-3-amino-1-(4-((6-amino-9H-purin-9-yl)methyl)-6-(2,5-difluoro-4-methoxyphenyl)pyridin-3-yl)piperidin-3-yl)-2,2-difluoroethan-1-ol D-tartaric acid salt]
[1]
  increase in weight in dynamic vapor sorption: 4.858%
[2]; 1 month
  API Purity by UPLC: 100.0 % area in LC trace
  Physical Appearance: white wolid
  Total Amount of Related Substances by UPLC: 0.05 % w/w
  Water Content by CKF: 0.4 % w/w
[2]; 3 months
  API Purity by UPLC: 100.0 % area in LC trace
  Physical Appearance: white wolid
  Total Amount of Related Substances by UPLC: 0.05 % w/w
  Water Content by CKF: 0.4 % w/w
[2]; 6 months
  API Purity by UPLC: 100.0 % area in LC trace
  Physical Appearance: white wolid
  Total Amount of Related Substances by UPLC: <0.05 % w/w
  Water Content by CKF: 0.4 % w/w
[2]; day 0
  API Purity by UPLC: 100.0 % area in LC trace
  Physical Appearance: white wolid
  Total Amount of Related Substances by UPLC: <0.05 % w/w
  Water Content by CKF: 0.2 % w/w
[2]; stored for 6 months
  XRPD spectrum after storage versus day 0: matched the XRPD spectrum obtained on said compound at the beginning of the stability study
[3]; after 30 minutes
  solubility at 30 min: > 2000 µg/mL
[3]; after 24 hours
  solubility at 24 h: > 2000 µg/mL
[4]; [9]
  solubility at 24 h: 1600 µg/mL
[4]; [10]
  pH of Liquid Medium at 24 Hours: 5.71
[4]; water
  solubility at 24 h: 2400 µg/mL
  pH of Liquid Medium at 24 Hours: 3.59
[5]
  water content by Karl Fischer (KF) titration: 1.22 wt %
[6]
  hydrate formation / anhydrous form: could be obtained in anhydrous form
[6]; long-duration stability studies
  hygroscopicity: low hygroscopicity
[7]; 1 month
  API Purity by UPLC: 99.9 % area in LC trace
  Physical Appearance: white
  Total Amount of Related Substances by UPLC: 0.05 % w/w
  Water Content by CKF: 0.3 % w/w
[7]; 3 months
  API Purity by UPLC: 100.0 % area in LC trace
  Physical Appearance: white
  Total Amount of Related Substances by UPLC: 0.05 % w/w
  Water Content by CKF: 0.4 % w/w
[7]; 6 months
  API Purity by UPLC: 100.0 % area in LC trace
  Physical Appearance: white
  Total Amount of Related Substances by UPLC: <0.05 % w/w
  Water Content by CKF: 0.3 % w/w
[7]; 9 months
  API Purity by UPLC: 100.0 % area in LC trace
  Physical Appearance: white
  Total Amount of Related Substances by UPLC: <0.05 % w/w
  Water Content by CKF: 0.2 % w/w
[7]; 12 months
  API Purity by UPLC: 100.0 % area in LC trace
  Physical Appearance: white
  Total Amount of Related Substances by UPLC: 0.05 % w/w
  Water Content by CKF: 0.3 % w/w
[7]; day 0
  API Purity by UPLC: 100.0 % area in LC trace
  Physical Appearance: white wolid
  Total Amount of Related Substances by UPLC: <0.05 % w/w
  Water Content by CKF: 0.2 % w/w
[7]; stored for 12 months
  XRPD spectrum after storage versus day 0: matched the XRPD spectrum obtained on said compound at the beginning of the stability study
[8]; after six days, 75% relative humidity, 40° C.
  XRPD of recovered salt: no change of the crystalline form
[8]; after the study: six days, 75% relative humidity, 40° C.
  purity by HPLC: 99.45 area percent
[8]; before the study
  purity by HPLC: 99.53 area percent

## COc1cc(F)c(-c2cc(Cn3cnc4c(N)ncnc43)c(N3CCC[C@](N)([C@H](O)C(F)F)C3)cn2)cc1F.O=C(O)/C=C/C(=O)O [Compound B, (S)-1-((R)-3-amino-1-(4-((6-amino-9H-purin-9-yl)methyl)-6-(2,5-difluoro-4-methoxyphenyl)pyridin-3-yl)piperidin-3-yl)-2,2-difluoroethan-1-ol fumaric acid salt]
[4]; [9]
  solubility at 24 h: 506 µg/mL
[4]; [10]
  pH of Liquid Medium at 24 Hours: 6.06
[4]; water
  solubility at 24 h: 488 µg/mL
  pH of Liquid Medium at 24 Hours: 4.03
[6]
  hydrate formation / anhydrous form: observed to form hydrates

## COc1cc(F)c(-c2cc(Cn3cnc4c(N)ncnc43)c(N3CCC[C@](N)([C@H](O)C(F)F)C3)cn2)cc1F [Compound C, (S)-1-((R)-3-amino-1-(4-((6-amino-9H-purin-9-yl)methyl)-6-(2,5-difluoro-4-methoxyphenyl)pyridin-3-yl)piperidin-3-yl)-2,2-difluoroethan-1-ol free base]
[4]; [9]
  solubility at 24 h: 298 µg/mL (≈ 545 µM)
[4]; [10]
  pH of Liquid Medium at 24 Hours: 6.61
[4]; water
  solubility at 24 h: 0.2 µg/mL (≈ 0.366 µM)
  pH of Liquid Medium at 24 Hours: 6.92

## COc1cc(F)c(-c2cc(Cn3cnc4c(N)ncnc43)c(N3CCC[C@](N)([C@H](O)C(F)F)C3)cn2)cc1F.Cl [hydrochloric acid salt]
[6]
  hydrate formation / anhydrous form: observed to form hydrates
